This data set in a line: photoluminescence quantum yield (fraction); solvent given as SMILES.

“And” between values parts separate entries of the source, which are not always exact repeats. Equal values may be shown once.

`C[Si]1(C)c2cc(C#Cc3ccccc3)ccc2C=Cc2ccc(C#Cc3ccccc3)cc21` had a photoluminescence quantum yield (in ClCCl) of 0.77.
`COc1ccc2ncccc2c1`: the photoluminescence quantum yield was found to be 0.071 (in CC#N), 0.075 (in CCCC#N) and 0.014 (in Cc1ccccc1).
For the compound `Clc1ccc(/C=C/c2ccc(-c3nc4c5cccnc5c5ncccc5c4[nH]3)cc2)cc1`, the photoluminescence quantum yield by setting is: (in C1CCOC1) 0.42; (in CC#N) 0.26; (in CO) 0.16; (in ClCCl) 0.34.
`CN(C)c1ccc2c(c1)COc1c-2oc2ccccc2c1=O` gave a photoluminescence quantum yield (in C1CCCCC1) of 0.5; a photoluminescence quantum yield (in C1CCOC1) of 0.91; a photoluminescence quantum yield (in CC#N) of 0.86; a photoluminescence quantum yield (in CCOC(C)=O) of 0.95; a photoluminescence quantum yield (in CCOCC) of 1; a photoluminescence quantum yield (in CO) of 0.68. The photoluminescence quantum yield (in Cc1ccccc1) is 1.
Consider `CC1=CC(C)=[N+]2C1=C(c1c3ccccc3cc3ccccc13)c1c(C)cc(C)n1[B-]2(F)F`, for which the photoluminescence quantum yield reads like this: (in CC#N) 0.006; (in CCCCCC) 0.99; (in CCO) 0.038; (in CN(C)C=O) 0.011; (in Cc1ccccc1) 0.92; (in ClCCl) 0.072.
On to `CC(C)[Si]1(C(C)C)c2cc(C#N)ccc2-c2ccc(N(C)C)cc21`, for which the photoluminescence quantum yield by setting is: (in C1CCCCC1) 0.6; (in CC#N) 0.65; (in CCO) 0.74; (in CCOCC) 0.66; (in CS(C)=O) 0.51; (in ClCCl) 0.79. This compound also showed a photoluminescence quantum yield (in c1ccccc1) of 0.62.
With `CCCCN(CCCC)c1ccc(/C=C/c2ccc3c(c2)CCc2cc(/C=C/c4ccc(N(CCCC)CCCC)cc4)ccc2-3)cc1`, the photoluminescence quantum yield (in CS(C)=O) stood at 0.87 and the photoluminescence quantum yield (in Cc1ccccc1) is 0.71.
`N#Cc1c(-n2c3ccccc3c3cc(I)ccc32)c(C#N)c(-n2c3ccccc3c3cc(I)ccc32)c(-n2c3ccccc3c3cc(I)ccc32)c1-n1c2ccccc2c2cc(I)ccc21` yielded a photoluminescence quantum yield (in Cc1ccccc1) of 0.78.
`CCC1(CC)c2ccccc2-c2c1c1c(c3c2C(CC)(CC)c2cc(B(c4c(C)cc(C)cc4C)c4c(C)cc(C)cc4C)ccc2-3)C(CC)(CC)c2ccccc2-1` gave a photoluminescence quantum yield (in C1CCOC1) of 0.56.
Turning to `CC[N+]1(CC)CN2C(=N1)C(C(=O)O)=Cc1cc(C)ccc12`, where the note is “in O”, the photoluminescence quantum yield came to 0.269.
Regarding `COc1ccc(-c2cc3c(s2)c(C(C)=O)cc(=O)n3C)cc1`, the photoluminescence quantum yield was 0.84 (in CC#N) and 0.98 (in ClCCl).
`NC(=O)CC[C@H](/[NH+]=C\C=C1\C=C(C(=O)O)N[C@H](C(=O)O)C1)C(=O)O`: the photoluminescence quantum yield was found to be 0.017 (in CCO); 0.011 (in CO); 0.0073 (in O); 0.014 (in OCC(F)(F)F); 0.039 (in OCCO).
With `N#Cc1ccc(-c2ccc3c(c2)c2cc(-c4ccc(C#N)cc4)ccc2c2c3nc(-c3ccc(N(c4ccccc4)c4ccccc4)cc3)n2-c2ccccc2)cc1`, the photoluminescence quantum yield stood at 0.42 (in C1CCOC1), 0.23 (in CC#N), 0.9 (in CCCCCC) and 0.59 (in CCOCC).
Regarding `COc1ccc(-n2nc(C#N)c(N3CCCCC3)n2)cc1`, where the note is “in CC#N”, the photoluminescence quantum yield was 0.929.
In turn, `c1ccc(-c2ccc(-c3ccccc3)cc2)cc1` registered a photoluminescence quantum yield (in C1COCCO1) of 0.55.
`C(#Cc1cccs1)C(C#Cc1cccs1)=Cc1ccc(C=C(C#Cc2cccs2)C#Cc2cccs2)cc1`: the photoluminescence quantum yield (in ClC(Cl)Cl) is 0.32 and 0.25.
Regarding `CC1(C)c2ccccc2N(c2ccc(-c3nnc(-c4cc(-c5ccccc5)c(-c5ccccc5)c(-c5ccccc5)c4-c4ccccc4)o3)cc2)c2ccccc21`, the photoluminescence quantum yield is, setting by setting: (in Cc1ccccc1) 0.235; (in c1ccc(-n2c(-c3c(-n4c5ccccc5c5ccccc54)cccc3-n3c4ccccc4c4ccccc43)nc3ccccc32)cc1) 0.359.
As for `CCCCCCCCCCCCN1C(=O)c2c(c3ccc4cc(-c5ccc(Cl)cc5)c(OC)cc4c3c3c2ccc2cc(-c4ccc(Cl)cc4)c(OC)cc23)C1=O`, the photoluminescence quantum yield (in ClCCl) was determined as 0.144.
The compound `CC(NC(=O)OC(C)(C)C)C(=O)OCc1ccc2c3cccc4cccc(c5cccc1c52)c43` (stereo not drawn) came in with a photoluminescence quantum yield (in CCO) of 0.88.
Turning to `CCC1=C(CC)c2cccc3c2c(cc2nc4ccccc4nc23)O1`, the photoluminescence quantum yield (in ClCCl) worked out at 0.47.
On the same count and under the same terms, the same measure for `CCN(CC)c1ccc2cc(C#N)c(=O)oc2c1`: 0.82; for `COc1cc2c(cc1OC)C1=C[C@H](c3ccc(C)cc3)C3(C(C#N)=C(C#N)N1CC2)c1cc(Cl)ccc1-c1ccc(Cl)cc13`: 0.00053.
Consider `COc1cccc(-c2nc3c([nH]2)C2=CC(=O)S[C@]2(C)[C@@]2(C)SC(=O)C=C32)c1OC`, for which the photoluminescence quantum yield (in CC#N) is 0.12.
`c1ccc2c(c1)[nH]c1ncccc12`: the photoluminescence quantum yield was found to be 0.47 (in CC#N) and 0.31 (in CCCCCC).
As for `CN1C(=O)/C(=C/c2ccncc2)N=C1/C=C/c1ccncc1`, the photoluminescence quantum yield by setting is: (in C1COCCO1) 0.048; (in CC#N) 0.033; (in CCO) 0.028; (in CCOC(C)=O) 0.041; (in O) 0.013.
In the case of `CSc1ccc(/C=C/c2cnc3ccccc3n2)cc1`, the photoluminescence quantum yield (in ClCCl) turned out to be 0.02.
Same read-out and setting: the same measure for `C[Si]1(C)O[Si](C)(C)c2cc3nc4ccccc4c(-c4ccc(F)cc4)c3cc2[Si](C)(C)O1`: 0.3.
Consider `COCCC1=Cc2nc1ccc1[nH]c(cc1CCOC)c1nc(ccc3[nH]c2cc3CCO)C(CCOC)=C1`, for which the photoluminescence quantum yield (in Cc1ccccc1) came out at 0.32.
The same measure, in the same setting: the same measure for `CCCCCCCCCCCCn1cccc1/C=C/c1cc(OCCCC)c(/C=C/c2cccn2CCCCCCCCCCCC)cc1OCCCC`: 0.4.
On to `[C-]#[N+]c1ccc(-c2ccc(N(C)C)cc2)cc1`, for which the photoluminescence quantum yield by setting is: (in C1CCCCC1) 0.82; (in C1CCOC1) 0.85; (in C1COCCO1) 0.74; (in CC#N) 0.89; (in CC(C)=O) 0.54; (in CCCCCC) 0.66. In addition, the photoluminescence quantum yield is, setting by setting: (in CCOC(C)=O) 0.54; (in CN(C)C=O) 0.86; (in CO) 0.15; (in CS(C)=O) 0.76; (in Cc1ccccc1) 0.62; (in ClC(Cl)Cl) 0.19. In addition, the photoluminescence quantum yield was 0.8 (in ClCCl), 0.016 (in O) and 0.63 (in c1ccncc1).
`c1cc2ccc3ccc4cc3c2cc1c1ccc2ccc3ccc(cc3c2c1)c1ccc2ccc3ccc4cc3c2c1` showed a photoluminescence quantum yield (in Cc1ccccc1) of 0.75.
Consider `COc1ccc(-c2cc3c(o2)=CC2=Cc4cc5oc(-c6ccc(OC)cc6)cc5n4[B-](F)(F)[N+]=32)cc1`, for which the photoluminescence quantum yield reads like this: (in C1CCOC1) 0.83; (in CC#N) 0.85; (in CCO) 0.77; (in CO) 0.77; (in Cc1ccccc1) 0.87; (in ClC(Cl)Cl) 0.86.
On to `N#Cc1nc2cnc(N)nc2n1Cc1ccccc1`, for which the photoluminescence quantum yield is, setting by setting: (in C1COCCO1) 0.34; (in CC#N) 0.31; (in CO) 0.64; (in ClCCl) 0.2; (in O) 0.88.

The record behind these values is the Deep4Chem optical property database.
